According to patent EP4722207A1, “OXOISOINDOLINYL-SUBSTITUTED TETRAHYDROPYRIMIDINEDIONE DERIVATIVE AND USE THEREOF” (Gluetacs Therapeutics (Shanghai) Co., Ltd., priority 2023, dated 2024):

Key:
WEE1 = target: T1, WEE1 (Homo sapiens, UniProt P30291+Q96SW2); assay: Western-blot assay, substrate protein degradation in hPBMCs: WEE1; type: cell-based; conditions: for WEE1 substrate protein remaining %: compounds at 50 nM and 500 nM, 24 hours; for substrate protein remaining % WEE1: 24 hours of compound treatment, 50 nM and 500 nM
T1 construct: effects of the compounds of the present disclosure on the expression of target proteins in cells; endogenous in cells; host or cells: human PBMCs (hPBMCs)
T1 sequence (P30291 whole entry): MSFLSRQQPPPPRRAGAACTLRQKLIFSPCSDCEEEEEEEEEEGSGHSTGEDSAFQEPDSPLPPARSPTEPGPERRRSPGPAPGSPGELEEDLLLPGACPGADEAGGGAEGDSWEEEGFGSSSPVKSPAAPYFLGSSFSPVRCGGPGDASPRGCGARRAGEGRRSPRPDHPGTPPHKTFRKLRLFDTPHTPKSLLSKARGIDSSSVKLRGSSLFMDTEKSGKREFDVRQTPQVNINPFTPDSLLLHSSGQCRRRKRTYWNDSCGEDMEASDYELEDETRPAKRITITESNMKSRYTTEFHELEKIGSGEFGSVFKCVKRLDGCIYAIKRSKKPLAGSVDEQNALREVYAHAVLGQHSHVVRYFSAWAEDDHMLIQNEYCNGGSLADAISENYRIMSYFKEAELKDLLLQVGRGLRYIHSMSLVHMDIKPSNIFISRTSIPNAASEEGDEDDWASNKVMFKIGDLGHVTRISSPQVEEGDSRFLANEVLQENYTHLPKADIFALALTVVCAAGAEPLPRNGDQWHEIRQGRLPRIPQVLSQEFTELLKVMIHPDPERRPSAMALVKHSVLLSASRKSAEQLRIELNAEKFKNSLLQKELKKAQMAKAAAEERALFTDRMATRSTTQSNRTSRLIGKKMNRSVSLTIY
T1 sequence (Q96SW2 whole entry): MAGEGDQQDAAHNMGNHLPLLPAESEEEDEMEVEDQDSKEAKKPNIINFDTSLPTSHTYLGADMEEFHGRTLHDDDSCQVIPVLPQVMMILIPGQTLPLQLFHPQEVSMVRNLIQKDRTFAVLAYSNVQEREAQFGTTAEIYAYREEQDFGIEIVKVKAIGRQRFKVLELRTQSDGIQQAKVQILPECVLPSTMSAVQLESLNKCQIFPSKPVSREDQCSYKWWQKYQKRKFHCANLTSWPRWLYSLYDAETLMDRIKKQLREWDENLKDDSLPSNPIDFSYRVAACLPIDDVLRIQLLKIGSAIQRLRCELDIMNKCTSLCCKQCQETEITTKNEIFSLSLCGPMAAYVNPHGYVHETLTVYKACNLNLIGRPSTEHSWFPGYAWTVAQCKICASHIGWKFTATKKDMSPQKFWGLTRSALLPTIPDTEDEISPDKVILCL
T1 sequence (Q16531 whole entry partner): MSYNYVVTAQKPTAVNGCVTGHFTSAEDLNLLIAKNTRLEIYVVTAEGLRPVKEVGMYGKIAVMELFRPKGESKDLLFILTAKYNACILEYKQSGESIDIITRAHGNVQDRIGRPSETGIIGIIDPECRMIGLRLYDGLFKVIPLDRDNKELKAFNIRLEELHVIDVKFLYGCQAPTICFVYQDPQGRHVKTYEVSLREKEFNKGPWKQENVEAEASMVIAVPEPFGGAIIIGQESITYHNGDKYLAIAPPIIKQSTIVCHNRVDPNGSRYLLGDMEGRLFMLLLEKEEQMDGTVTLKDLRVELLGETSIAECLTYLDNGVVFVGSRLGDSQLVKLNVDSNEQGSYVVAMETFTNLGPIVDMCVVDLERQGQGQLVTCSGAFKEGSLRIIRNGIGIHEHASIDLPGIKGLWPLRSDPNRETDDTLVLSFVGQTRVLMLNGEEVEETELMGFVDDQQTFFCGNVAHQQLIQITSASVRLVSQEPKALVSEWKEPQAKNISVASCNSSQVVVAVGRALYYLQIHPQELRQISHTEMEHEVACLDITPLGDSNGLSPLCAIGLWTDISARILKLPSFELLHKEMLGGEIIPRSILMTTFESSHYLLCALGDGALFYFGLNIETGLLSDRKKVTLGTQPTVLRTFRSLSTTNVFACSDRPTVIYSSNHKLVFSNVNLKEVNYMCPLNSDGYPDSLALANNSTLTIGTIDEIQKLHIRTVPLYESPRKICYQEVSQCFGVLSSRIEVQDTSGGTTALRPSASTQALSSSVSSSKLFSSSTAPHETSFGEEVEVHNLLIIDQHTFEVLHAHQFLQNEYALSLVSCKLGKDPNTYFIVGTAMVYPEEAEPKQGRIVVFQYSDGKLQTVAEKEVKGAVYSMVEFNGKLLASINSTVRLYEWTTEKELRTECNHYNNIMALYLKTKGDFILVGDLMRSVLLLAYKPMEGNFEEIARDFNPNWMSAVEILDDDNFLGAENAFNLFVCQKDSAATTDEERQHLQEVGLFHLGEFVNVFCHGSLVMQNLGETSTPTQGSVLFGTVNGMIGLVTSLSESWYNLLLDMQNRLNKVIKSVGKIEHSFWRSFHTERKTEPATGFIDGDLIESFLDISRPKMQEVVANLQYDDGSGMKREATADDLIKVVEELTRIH

IKZF1 = target: T2, IKZF1 (Homo sapiens, UniProt Q13422+Q96SW2); assay: Western-blot assay, substrate protein degradation in hPBMCs: IKZF1; type: cell-based; conditions: for IKZF1 substrate protein remaining %: compounds at 50 nM and 500 nM, 24 hours; for substrate protein remaining % IKZF1: 24 hours of compound treatment, 50 nM and 500 nM
T2 construct: effects of the compounds of the present disclosure on the expression of target proteins in cells; endogenous in cells; host or cells: human PBMCs (hPBMCs)
T2 sequence (Q13422 whole entry): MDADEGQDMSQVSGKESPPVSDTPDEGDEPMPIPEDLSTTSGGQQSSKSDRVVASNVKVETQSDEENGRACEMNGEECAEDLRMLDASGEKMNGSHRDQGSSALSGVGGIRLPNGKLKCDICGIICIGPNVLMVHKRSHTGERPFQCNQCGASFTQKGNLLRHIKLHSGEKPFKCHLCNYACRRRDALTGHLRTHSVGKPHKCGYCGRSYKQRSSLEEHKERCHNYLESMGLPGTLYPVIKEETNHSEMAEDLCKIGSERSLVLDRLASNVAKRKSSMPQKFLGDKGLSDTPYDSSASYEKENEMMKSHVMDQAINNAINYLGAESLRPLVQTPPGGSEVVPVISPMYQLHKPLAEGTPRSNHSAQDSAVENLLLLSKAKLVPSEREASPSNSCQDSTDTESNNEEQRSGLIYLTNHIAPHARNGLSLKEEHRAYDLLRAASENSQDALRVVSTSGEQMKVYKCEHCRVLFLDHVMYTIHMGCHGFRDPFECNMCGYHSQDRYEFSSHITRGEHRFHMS
T2 sequence (Q96SW2 whole entry): as the sequence (Q96SW2 whole entry) above
T2 sequence (Q16531 whole entry partner): as the sequence (Q16531 whole entry partner) above

IKZF2 = target: T3, IKZF2 (Homo sapiens, UniProt Q96SW2+Q9UKS7); assay: Western-blot assay, substrate protein degradation in hPBMCs: IKZF2; type: cell-based; conditions: for IKZF2 substrate protein remaining %: compounds at 50 nM and 500 nM, 24 hours; for substrate protein remaining % IKZF2: 24 hours of compound treatment, 50 nM and 500 nM
T3 construct: effects of the compounds of the present disclosure on the expression of target proteins in cells; endogenous in cells; host or cells: human PBMCs (hPBMCs)

IKZF3 = target: T4, IKZF3 (Homo sapiens, UniProt Q96SW2+Q9UKT9); assay: Western-blot assay, substrate protein degradation in hPBMCs: IKZF3; type: cell-based; conditions: for IKZF3 substrate protein remaining %: compounds at 50 nM and 500 nM, 24 hours; for substrate protein remaining % IKZF3: 24 hours of compound treatment, 50 nM and 500 nM
T4 construct: effects of the compounds of the present disclosure on the expression of target proteins in cells; endogenous in cells; host or cells: human PBMCs (hPBMCs)
T4 sequence (Q9UKT9 whole entry): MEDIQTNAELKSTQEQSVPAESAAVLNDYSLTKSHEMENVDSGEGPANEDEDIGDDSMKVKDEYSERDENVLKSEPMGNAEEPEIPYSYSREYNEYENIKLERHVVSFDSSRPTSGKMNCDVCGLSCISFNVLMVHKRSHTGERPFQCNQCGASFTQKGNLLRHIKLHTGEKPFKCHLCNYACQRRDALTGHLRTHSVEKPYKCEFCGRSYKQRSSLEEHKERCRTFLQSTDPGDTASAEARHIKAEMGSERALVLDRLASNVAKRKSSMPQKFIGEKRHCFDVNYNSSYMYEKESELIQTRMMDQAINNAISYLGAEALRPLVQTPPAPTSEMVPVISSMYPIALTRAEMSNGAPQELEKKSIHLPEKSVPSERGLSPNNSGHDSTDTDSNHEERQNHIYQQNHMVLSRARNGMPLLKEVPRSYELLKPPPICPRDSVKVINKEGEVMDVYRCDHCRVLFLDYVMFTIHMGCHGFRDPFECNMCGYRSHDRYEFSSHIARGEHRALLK
T4 sequence (Q96SW2 whole entry): as the sequence (Q96SW2 whole entry) above
T4 sequence (Q16531 whole entry partner): as the sequence (Q16531 whole entry partner) above

CK1α = target: T5, CK1α (Homo sapiens, UniProt P48729+Q96SW2); assay: Western-blot assay, substrate protein degradation in hPBMCs: CK1α; type: cell-based; conditions: for CK1α substrate protein remaining %: compounds at 50 nM and 500 nM, 24 hours; for substrate protein remaining % CK1α: 24 hours of compound treatment, 50 nM and 500 nM
T5 construct: effects of the compounds of the present disclosure on the expression of target proteins in cells; endogenous in cells; host or cells: human PBMCs (hPBMCs)
T5 sequence (P48729 whole entry): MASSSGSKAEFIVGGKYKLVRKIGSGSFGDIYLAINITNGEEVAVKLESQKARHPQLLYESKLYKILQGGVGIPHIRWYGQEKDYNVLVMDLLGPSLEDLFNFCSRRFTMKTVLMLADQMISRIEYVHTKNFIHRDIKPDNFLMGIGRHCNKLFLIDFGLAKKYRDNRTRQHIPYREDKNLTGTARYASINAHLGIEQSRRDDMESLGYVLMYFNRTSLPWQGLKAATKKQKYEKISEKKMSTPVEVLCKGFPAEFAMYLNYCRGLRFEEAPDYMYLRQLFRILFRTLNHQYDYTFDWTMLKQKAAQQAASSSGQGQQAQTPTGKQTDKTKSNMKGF
T5 sequence (Q96SW2 whole entry): as the sequence (Q96SW2 whole entry) above
T5 sequence (Q16531 whole entry partner): as the sequence (Q16531 whole entry partner) above

GSPT1 = target: T6, GSPT1 (Homo sapiens, UniProt P15170+Q96SW2); assay: Western-blot assay, substrate protein degradation in hPBMCs: GSPT1; type: cell-based; conditions: for GSPT1 substrate protein remaining %: compounds at 50 nM and 500 nM, 24 hours; for substrate protein remaining % GSPT1: 24 hours of compound treatment, 50 nM and 500 nM
T6 construct: effects of the compounds of the present disclosure on the expression of target proteins in cells; endogenous in cells; host or cells: human PBMCs (hPBMCs)
T6 sequence (P15170 whole entry): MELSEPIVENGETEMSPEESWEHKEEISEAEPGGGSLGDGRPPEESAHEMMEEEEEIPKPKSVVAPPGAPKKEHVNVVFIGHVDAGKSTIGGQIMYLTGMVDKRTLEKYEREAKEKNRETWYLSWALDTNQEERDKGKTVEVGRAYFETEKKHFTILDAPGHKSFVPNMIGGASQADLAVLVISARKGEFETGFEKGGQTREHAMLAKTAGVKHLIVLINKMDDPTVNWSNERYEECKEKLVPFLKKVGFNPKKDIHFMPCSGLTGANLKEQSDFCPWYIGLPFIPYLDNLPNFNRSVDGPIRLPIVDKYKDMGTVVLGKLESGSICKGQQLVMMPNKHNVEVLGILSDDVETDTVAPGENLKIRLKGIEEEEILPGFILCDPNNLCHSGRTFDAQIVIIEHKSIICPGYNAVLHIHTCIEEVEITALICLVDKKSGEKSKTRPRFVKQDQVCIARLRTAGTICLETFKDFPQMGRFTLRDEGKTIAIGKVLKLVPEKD
T6 sequence (Q96SW2 whole entry): as the sequence (Q96SW2 whole entry) above
T6 sequence (Q16531 whole entry partner): as the sequence (Q16531 whole entry partner) above

[1] = target: T7, human Cereblon WT GST-tagged protein (Homo sapiens, UniProt Q96SW2); assay: CRBN-binding affinity, CEREBLON BINDING kit (HTRF); conditions: 3 hours at room temperature
T7 construct: purchased CISBIO 64BDCRBNPEH
T7 sequence (Q96SW2 whole entry): as the sequence (Q96SW2 whole entry) above
Text: The CEREBLON BINDING kits (specification: 10,000 tests; product number: Catalog # 64BDCRBNPEH; CISBIO company) was used to determine the CRBN binding ability of the compounds to be tested through a HTRF method (homogeneous time-resolved fluorescence). The specific methods are as follows: • 1. […] Specifically, diluent #9 (1X) solution was used as the diluent, and multiple concentration gradients were set. […] Into the 96-well plate, the diluted test compounds and corresponding detection reagents were added, resulting in final test compound concentrations of 2 µM and 0.5 µM, respectively. […] Then, 2.5 µL of human Cereblon WT GST-tagged protein solution was added to each well. Finally, 5 µL of the thoroughly mixed Thalidomide-Re reagent and GST Eu antibody working solution were added to each of the aforementioned wells. […] The blank control wells were sequentially added with 2.5 µL of diluent #9 (1X) solution, 2.5 µL of binding buffer, and 5 µL of thoroughly mixed Thalidomide-Re reagent and GST Eu antibody working solution. • 4. […] OD 620 nm control is the absorbance value of the blank control well at an emission wavelength of 620 nm. […] OD 620 nm Std0 is the absorbance value of the solvent control well at an emission wavelength of 620 nm.

MM.1S = assay: Cell viability assay (CellTiter-Meiluncell Luminescent), tumor cell proliferation, MM.1S; conditions: Homo sapiens, MM1.S, 96 h, read-out: inhibitory activity (IC50, nM) against tumor cells proliferation, MM.1S
Description: The tumor cells used herein were cultured in a cell culture medium listed in table 2 at 37°C in an incubator with 5% CO2. Prior to experimentation, all cell lines used were correctly identified by STR profiling, and tested negative for mycoplasma contamination using a mycoplasma detection kit through routine screenings.
On the following day, the test compounds of the present disclosure were subjected to serial dilution. […] Subsequently, 0.5 µL of the test compound dilution was transferred into the 96-well plate containing the cells, with each well containing 100 µL of cell culture medium. […] Into the 96-well plate, the diluted test compounds and corresponding detection reagents were added, resulting in final test compound concentrations of 500 nM and 10 nM, respectively. The experimental procedure is described below using the diluted 2 µM test compound as an example.
(§1) After the cells were treated with the compounds of the present disclosure for a specified period, the cell viability assay reagent was added to the culture medium according to the kit's instructions to determine cell viability. […] All controls were treated using the same procedure as the compounds of the present disclosure. The growth inhibition curves for the compounds of the present disclosure were plotted using Prism GraphPad software, and the IC50 values were calculated therefrom.

Jurkat = assay: Cell viability assay (CellTiter-Meiluncell Luminescent), tumor cell proliferation, Jurkat; conditions: Homo sapiens, 96 h, read-out: inhibitory activity (IC50, nM) against tumor cells proliferation, Jurkat
Description: On the following day, the test compounds of the present disclosure were subjected to serial dilution. […] Subsequently, 0.5 µL of the test compound dilution was transferred into the 96-well plate containing the cells, with each well containing 100 µL of cell culture medium. […] Into the 96-well plate, the diluted test compounds and corresponding detection reagents were added, resulting in final test compound concentrations of 500 nM and 10 nM, respectively.
as §1

Structure (SMILES)	IC50 [1]	IC50 (MM.1S)	IC50 (Jurkat)	WEE1 substrate protein remaining % (WEE1)	IKZF1 substrate protein remaining % (IKZF1)	IKZF2 substrate protein remaining % (IKZF2)	IKZF3 substrate protein remaining % (IKZF3)	CK1α substrate protein remaining % (CK1α)	GSPT1 substrate protein remaining % (GSPT1)	substrate protein remaining % WEE1 (WEE1)	substrate protein remaining % IKZF1 (IKZF1)	substrate protein remaining % IKZF2 (IKZF2)	substrate protein remaining % IKZF3 (IKZF3)	substrate protein remaining % CK1α (CK1α)	substrate protein remaining % GSPT1 (GSPT1)
O=C1CCN(N2Cc3cc(CN4CC5CCC4CN5C(c4ccccc4)c4ccccc4)ccc3C2=O)C(=O)N1 (stereo not shown) [GT-06450, 1-(5-((5-benzhydryl-2,5-diazabicyclo[2.2.2]octan-2-yl)methyl)-1-oxoisoindolin-2-yl)dihydropyrimidine-2,4(1H,3H)-dione]	1.5 to 1.9 µM	–	–	A ("A" is defined as 0% ≤ substrate protein remaining % ≤ 80%)	B ("B" is defined as 80%< substrate protein remaining %≤ 100%)	A ("A" is defined as 0% ≤ substrate protein remaining % ≤ 80%)	A ("A" is defined as 0% ≤ substrate protein remaining % ≤ 80%)	B ("B" is defined as 80%< substrate protein remaining %≤ 100%)	A ("A" is defined as 0% ≤ substrate protein remaining % ≤ 80%)	–	–	–	–	–	–
O=C1CCN(N2Cc3cc(CN4CC=C(c5c[nH]c6cc(F)ccc56)CC4)ccc3C2=O)C(=O)N1 [GT-07574, 1-(5-((4-(6-fluoro-1H-indol-3-yl)-3,6-dihydropyridin-1(2H)-yl)methyl)-1-oxoisoindolin-2-yl)dihydropyrimidine-2,4(1H,3H)-dione]	1.5 to 1.9 µM	–	–	–	–	–	–	–	–	A (0% ≤ substrate protein remaining % ≤ 80%)	B (80%< substrate protein remaining %≤ 100%)	A (0% ≤ substrate protein remaining % ≤ 80%)	B (80%< substrate protein remaining %≤ 100%)	A (0% ≤ substrate protein remaining % ≤ 80%)	A (0% ≤ substrate protein remaining % ≤ 80%)
O=C1CCN(N2Cc3cc(CN4CC=C(c5cccc6c(F)cccc56)CC4)ccc3C2=O)C(=O)N1 [GT-07590, 1-(5-((4-(5-fluoronaphthalen-1-yl)-3,6-dihydropyridin-1(2H)-yl)methyl)-1-oxoisoindolin-2-yl)dihydropyrimidine-2,4(1H,3H)-dione]	–	10 to 50 nM	50 to 100 nM	–	–	–	–	–	–	A (0% ≤ substrate protein remaining % ≤ 80%)	A (0% ≤ substrate protein remaining % ≤ 80%)	A (0% ≤ substrate protein remaining % ≤ 80%)	A (0% ≤ substrate protein remaining % ≤ 80%)	B (80%< substrate protein remaining %≤ 100%)	A (0% ≤ substrate protein remaining % ≤ 80%)

More lines, main results first:

IC50 [1]	IC50 (MM.1S)	IC50 (Jurkat)	Structure (SMILES)	WEE1 substrate protein remaining % (WEE1)	IKZF1 substrate protein remaining % (IKZF1)	IKZF2 substrate protein remaining % (IKZF2)	IKZF3 substrate protein remaining % (IKZF3)	CK1α substrate protein remaining % (CK1α)	GSPT1 substrate protein remaining % (GSPT1)	substrate protein remaining % WEE1 (WEE1)	substrate protein remaining % IKZF1 (IKZF1)	substrate protein remaining % IKZF2 (IKZF2)	substrate protein remaining % IKZF3 (IKZF3)	substrate protein remaining % CK1α (CK1α)	substrate protein remaining % GSPT1 (GSPT1)
1 to 1.5 µM	–	–	O=C1CCN(N2Cc3cc(CN4CCN(c5cccs5)CC4)ccc3C2=O)C(=O)N1 [GT-05073, 1-(1-oxo-5-((4-(thiophen-2-yl)piperazin-1-yl)methyl)isoindolin-2-yl)dihydropyrimidine-2,4(1H,3H)-dione]	B ("B" is defined as 80%< substrate protein remaining %≤ 100%)	B ("B" is defined as 80%< substrate protein remaining %≤ 100%)	B ("B" is defined as 80%< substrate protein remaining %≤ 100%)	A ("A" is defined as 0% ≤ substrate protein remaining % ≤ 80%)	B ("B" is defined as 80%< substrate protein remaining %≤ 100%)	B ("B" is defined as 80%< substrate protein remaining %≤ 100%)	–	–	–	–	–	–
–	50 to 100 nM	50 to 100 nM	O=C1CCN(N2Cc3cc(CN4CC=C(c5n[nH]c6cc(F)ccc56)CC4)ccc3C2=O)C(=O)N1 [GT-07578, 1-(5-((4-(6-fluoro-1H-indazol-3-yl)-3,6-dihydropyridin-1(2H)-yl)methyl)-1-oxoisoindolin-2-yl)dihydropyrimidine-2,4(1H,3H)-dione]	–	–	–	–	–	–	A (0% ≤ substrate protein remaining % ≤ 80%)	A (0% ≤ substrate protein remaining % ≤ 80%)	A (0% ≤ substrate protein remaining % ≤ 80%)	B (80%< substrate protein remaining %≤ 100%)	B (80%< substrate protein remaining %≤ 100%)	A (0% ≤ substrate protein remaining % ≤ 80%)
